The subject of experiment [1] is sub-genomic HCV replicon of genotype 1a. Put plainly: ELISA (NS5A protein level) in sub-genomic replicon 1a cell line W11.8. In kind it is cell-based. The conditions noted are these: for IC50: W11.8, Table 4; for IC99 (nM) (1a): Table 4. From the text: Activity Determination Using the ELISA and the Sub-Genomic Replicon 1a Cell Line
The cell line W11.8 containing the sub-genomic HCV replicon of genotype 1a is used to determine the potency of the drugs. The RNA replication in presence of different drug concentrations is indirectly measured in this cell line by the level of NS5A protein content upon drug treatment for four days. It is shown that the level of the NS5A protein correlates well with the level of HCV RNA in the replicon cell line. Cells are split twice a week in order to keep the confluence state below 85% of the culture flask surface area. The culture media used for cell passaging consists of DMEM-10% foetal bovine serum with 100 UI/mL penicillin, 100 μg/mL streptomycin, 2 mM glutamine, 1 mM sodium pyruvate, non-essential amino acids (1×) and 600 μg/mL of G418 final concentrations. Monolayer of the W11.8 cells is trypsinized and cells are counted. Cells are diluted at 50,000 cells/mL with complete DMEM without G418, then approximately 5,000 viable cells (100 μL) are plated per well in a white opaque 96-well microtiter plate. After an incubation period of 2-4 hours at 37° C. in a 5% CO2 incubator, compounds are added at various concentrations. Drugs are resuspended in DMSO at a stock concentration of 10 mM. Then, drugs are serially diluted at twice the final concentration in the same medium. One volume (100 μL) of each drug dilution is then added to each well that contains cells. A control compound is used as an internal standard for each plate assay. Sixteen wells are used as control (0% inhibition) without drug. […] Values from 100% inhibited wells were averaged and used as the background value. Cells are further incubated for four days at 37° C. in a 5% CO2 incubator. Following the incubation time of four days, the media is removed and wells are washed once with 150 μL of PBS at room temperature for five minutes. Cells are then fixed for five minutes using 150 μL per well of cold (−20° C.) fixative solution (50% methanol/50% acetone mix). Cells are then washed twice with 150 μL of PBS (phosphate buffered saline) per well, following the addition of 150 μL of blocking solution, cells are incubated for one hour at 37° C. to block non-specific sites. The blocking solution is removed and cells are washed twice with 150 μL of PBS per well and once with 150 μL of PBSTS solution (PBS/0.1% Triton X-100/0.02% SDS) per well. Then, 50 μL of mouse monoclonal anti-NS5A antibody (Santa Cruz, Cat. No. sc-52417) is added in each well, diluted 1/1,000 in the blocking solution and incubated at 4° C. overnight. Next day, media is removed and plates are washed five times with 150 μL of PBS per well with five-minute incubations at room temperature. Then 50 μL per well of peroxidase-conjugated donkey anti-mouse antibody (Jackson Immunoresearch, Cat. No. 715-036-150) diluted 1/10,000 in the blocking solution is added and incubated at room temperature for three hours on a shaker (500 rpm). Plates are washed four times with 150 μL of PBSTS solution per well and once with 150 μL of PBS. Then, substrate solution (100 μl, SuperSignal ELISA Pico Chemiluminescent Substrate, Fisher Cat. No. 37069) is added in each well and plates are incubated 60 minutes at room temperature prior to reading the luminescence (relative light units) on the Analyst HT plate reader. The percentage of inhibition at each drug concentration tested (in duplicate) is calculated.

Experiment [2] deals with HCV (1b) RNA replication (replicon I389Luc-ubi-neo/NS3-3′/5.1). Description: Cell-based luciferase reporter HCV (1b) RNA replication assay, Huh-ET cells. The conditions noted are these: for IC50 / pEC50: Hepatitis C virus; for IC50 / IC99 (nM) (1b): Table 4, sub-genomic replicon 1b cell line; for pEC50: HCV genotype 1b replicon. The source says:
Cell-Based Luciferase Reporter HCV (Ib) RNA Replication Assay Cell Culture
Replicon cell lines Huh-5.2 are derived from the Huh-7 hepatocarcinoma cell line are maintained in culture as generally described in Krieger, N; Lohmann, V; Bartenschlager, R. Enhancement of hepatitis C virus RNA replication by cell culture-adaptive mutations. J. Virol. 2001, 75, 4614-4624. The Huh-5.2 cells contain the highly cell culture-adapted replicon I389Luc-ubi-neo/NS3-3′/5.1 construct that carries, in addition to the neomycin gene, an integrated copy to the firefly luciferase gene (Krieger, N; Lohmann, V; Bartenschlager, R. Enhancement of hepatitis C virus RNA replication by cell culture-adaptive mutations. J. Virol. 2001, 75, 4614-4624). This cell line allows measurement of HCV RNA replication and translation by measuring luciferase activity. It has been previously shown that the luciferase activity tightly follows the replicon RNA level in these cells (Krieger, N; Lohmann, V; Bartenschlager, R. Enhancement of hepatitis C virus RNA replication by cell culture-adaptive mutations. J. Virol. 2001, 75, 4614-4624). The Huh-ET cell line has the same features as those mentioned for Huh-5.2 cell line, except that ET cells are more robust and contain an adaptative mutation in the HCV NS4B gene instead of NSSA. Both cell lines are maintained in cultures at a sub-confluent level (<85%) as the level of replicon RNA is highest in actively proliferating cells. The culture media used for cell passaging consist of DMEM (Gibco BRL Laboratories, Mississauga, ON, Canada) supplemented with 10% foetal bovine serum with 1% penicilin/streptomycin, 1% glutamine, 1% sodium pyruvate, 1% non-essential amino acids, and 180 μg/ml of G418 final concentration. Cells are incubated at 37° C., in an atmosphere of 5% CO2 and passaged twice a week to maintain sub-confluence.
Approximately 3000 viable Huh-ET cells (100 μl) are plated per well in a white opaque 96-well microtiter plate. The cell culture media used for the assay is the same as described above except that it contains no G418 and no phenol red. After an incubation period of 3-4 hours at 37° C. in a 5% CO2 incubator, compounds (100 μl) are added at various concentrations. Cells are then further incubated for 4 days at 37° C. in a 5% CO2 incubator. Thereafter, the culture media is removed and cells are lysed by the addition of 95 μL of the luciferase buffer (luciferin substrate in buffered detergent). Cell lysates are incubated at room temperature and protected from direct light for at least 10 minutes. Plates are read for luciferase counts using a luminometer (Wallac MicroBeta Trilux, Perkin Elmer™, MA, USA).
Curves are fitted to data points using nonlinear regression analysis, and IC50s are interpolated from the resulting curve using GraphPad Prism software, version 2.0 (GraphPad Software Inc., San Diego, Calif., USA).

The mark [3] stands for this setting: Hepatitis C virus, W11.8, read-out: EC50 (μM) (1a), Table 3.

17 compounds from US20130090364A1, “ANALOGUES FOR THE TREATMENT OR PREVENTION OF FLAVIVIRUS INFECTIONS” (priority 2010, published 2013) can be followed below.

pEC50: −log10 of the molar value. Read-outs that look alike come from different tables or passages of the source. Where only a bound is given, the exact number is not on record here.

One may read the EC50 as the concentration needed to bring the measured effect to its halfway point. Regarding `COC(=O)N[C@H](C(=O)N1C[C@@H](C)C[C@H]1c1nc2cc(C#Cc3cc4[nH]c([C@@H]5C[C@H](C)CN5C(=O)[C@@H](NC(=O)OC)C(C)C)nc4s3)ccc2[nH]1)C(C)C` [Compound 2b], the concentration giving a half-maximal response (EC50) in experiment [1] (setting [3]) was found to be 0.0403 µM; in experiment [1] (read-out: EC50 (μM) (1a), Table 3), 0.0377 µM.

A word on the IC50: it is the concentration needed to halve the response being measured. Low readings indicate greater potency in that assay, high ones weaker potency in that assay. As to `COC(=O)N[C@H](C(=O)N1C[C@@H](C)C[C@H]1c1nc2sc(-c3ccc(-c4ccc5[nH]c([C@@H]6CC[C@H](C)N6C(=O)[C@@H](NC(=O)OC)C(C)C)nc5c4)cc3)cc2[nH]1)C(C)C` [Compound 2c], in experiment [2], the IC50 came to 0.005 nM and the “IC99 (nM) (1b)” value stood at 0.303 nM. In experiment [1] (Hepatitis C virus), the IC50 is 0.619 nM. The “IC99 (nM) (1a)” value in experiment [1] turned out to be 10.038 nM.

As to `COC(=O)N[C@H](C(=O)N1C[C@@H](C)C[C@H]1c1nc2sc(C#CC#Cc3cc4[nH]c([C@@H]5C[C@H](C)CN5C(=O)[C@@H](NC(=O)OC)C(C)C)nc4s3)cc2[nH]1)C(C)C` [Compound 4b], the EC50 in experiment [1] (setting [3]) turned out to be 0.184 µM.

Regarding `COC(=O)NC(C(=O)N1C[C@@H](C)C[C@H]1c1nc2sc(-c3ccc(-c4ccc5[nH]c([C@@H]6C[C@H](C)CN6C(=O)[C@@H](NC(=O)OC)C(C)C)nc5c4)cc3)cc2[nH]1)C(C)C` (stereo partly drawn) [Compound 1c], in experiment [2], the IC50 amounted to 0.011 nM and the “IC99 (nM) (1b)” value was 0.207 nM. The compound also displayed an IC50 in experiment [1] (Hepatitis C virus) of 1.65 nM. Also, the “IC99 (nM) (1a)” value in experiment [1] amounted to 11.155 nM. On to `COC(=O)N[C@H](C(=O)N1CCCC1c1nc2cc(C#Cc3cc4[nH]c([C@@H]5CCCN5C(=O)[C@@H](NC(=O)OC)C(C)C)nc4s3)ccc2[nH]1)C(C)C` (stereo partly drawn) [Compound 1b], for which the EC50 in experiment [1] (setting [3]) turned out to be 0.828 µM. In general, pEC50 refers to the negative decadic logarithm of the EC50, by convention in mol/L. Take `COC(=O)N[C@H](C(=O)N1C[C@@H](C)C[C@H]1c1ncc(-c2ccc(-c3ccc(-c4cc5[nH]c([C@@H]6C[C@H](C)CN6C(=O)[C@@H](NC(=O)OC)C(C)C)nc5s4)cc3)c(F)c2)[nH]1)C(C)C` [Compound 9a]: the negative logarithm of the EC50 (pEC50) in experiment [2] (Table 2B) was no less than 8.30.

As to `COC(=O)N[C@H](C(=O)N1CCCC1c1nc2cc(C#Cc3cc4[nH]c([C@@H]5CCCN5C(=O)[C@@H](NC(=O)OC)C(C)C)nc4s3)ccc2[nH]1)C(C)C` (stereo partly drawn) [Compound 1], the pEC50 in experiment [2] (Table 2A) is no less than 8.30.

As to `COC(=O)N[C@H](C(=O)N1C[C@@H](C)C[C@H]1c1ncc(-c2ccc(-c3ccc(-c4cc5[nH]c([C@@H]6C[C@H](C)CN6C(=O)[C@@H](NC(=O)OC)C(C)C)nc5s4)s3)cc2)[nH]1)C(C)C` [Compound 22], the pEC50 in experiment [2] (Table 2A) was no less than 8.30. With `COC(=O)N[C@H](C(=O)N1C[C@@H](C)C[C@H]1c1nc(-c2ccc(-c3ccc(-c4cc5[nH]c([C@@H]6C[C@H](C)CN6C(=O)[C@@H](NC(=O)OC)C(C)C)nc5s4)cc3C)cc2)c[nH]1)C(C)C` [Compound 8a], the pEC50 in experiment [2] (Table 2B) was no less than 8.30. `COC(=O)N[C@H](C(=O)N1C[C@@H](C)C[C@H]1c1ncc(C#Cc2ccc(-c3cc4[nH]c([C@@H]5C[C@H](C)CN5C(=O)[C@@H](NC(=O)OC)C(C)C)nc4s3)cc2)[nH]1)C(C)C` [Compound 12] gave a pEC50 in experiment [2] (Table 2A) of no less than 8.30.

Take `COC(=O)N[C@H](C(=O)N1CCC[C@H]1c1nc2sc(C#CC#Cc3cc4[nH]c([C@@H]5CCCN5C(=O)[C@@H](NC(=O)OC)C(C)C)nc4s3)cc2[nH]1)C(C)C` [Compound 3b]: the concentration giving a half-maximal response (EC50) in experiment [1] (setting [3]) came out at 0.282 µM. The compound `COC(=O)N[C@H](C(=O)N1CCC[C@H]1c1nc2sc(C#CC#Cc3cc4[nH]c([C@@H]5CCCN5C(=O)[C@@H](NC(=O)OC)C(C)C)nc4s3)cc2[nH]1)C(C)C` [Compound 2] gave a pEC50 in experiment [2] (Table 2A) of no less than 8.30. On the same count and under the same terms, in the case of `C[C@H]1C[C@@H](c2nc3cc(-c4ccc(-c5ccc(-c6cc7[nH]c([C@@H]8C[C@H](C)CN8C(=O)OC(C)(C)C)nc7s6)cc5)s4)ccc3[nH]2)N(C(=O)OC(C)(C)C)C1` [Compound 18] it was 5.30 to 8.30. In experiment [2] (Table 2B), `COC(=O)N[C@H](C(=O)N1C[C@@H](C)C[C@H]1c1ncc(-c2ccc(-c3ccc(-c4cc5[nH]c([C@@H]6C[C@H](C)CN6C(=O)[C@@H](NC(=O)OC)C(C)C)nc5s4)cc3)cc2F)[nH]1)C(C)C` [Compound 10a] showed a pEC50 of no less than 8.30. `COC(=O)N[C@H](C(=O)N1C[C@@H](C)C[C@H]1c1nc(-c2cccc(-c3ccc(-c4cc5nc([C@@H]6C[C@H](C)CN6C(=O)[C@@H](NC(=O)OC)C(C)C)[nH]c5s4)cc3)c2)c[nH]1)C(C)C` [Compound 20]: in experiment [2] (Table 2A), the pEC50 is no less than 8.30. On the same count and under the same terms, next, `COC(=O)N[C@H](C(=O)N1C[C@@H](C)C[C@H]1c1ncc(C#Cc2ccc(-c3ccc(-c4cc5[nH]c([C@@H]6C[C@H](C)CN6C(=O)[C@@H](NC(=O)OC)C(C)C)nc5s4)cc3)cc2)[nH]1)C(C)C` [Compound 15]: no less than 8.30. Still for that read-out and setting: next, `COC(=O)N[C@H](C(=O)N1C[C@@H](C)C[C@H]1c1ncc(-c2ccc(-c3cc4sc(-c5cc6[nH]c([C@@H]7C[C@H](C)CN7C(=O)[C@@H](NC(=O)OC)C(C)C)nc6s5)cc4s3)cc2)[nH]1)C(C)C` [Compound 26]: no less than 8.30.
